Values quoted from earlier work in patent publication US20080299189A1, “CONTROLLED RELEASE DOPAMINE AGONIST COMPOSITIONS” (DRUGTECH CORPORATION, priority 2007, published 2008).

Columns and labels:
[1] = compared to placebo

CCCN[C@H]1CCc2nc(N)sc2C1 [pramipexole, (S)-2-amino-4,5,6,7-tetrahydro-6-(propylamino)benzothiazole]
half-life (in vivo): 8.5 h | Cmax (printed as a time): 1 to 3 h | relative risk of hallucination [1]: 5.2 | relative risk of hypotension [1]: 1.65 | relative risk of somnolence [1]: 2.01
